Measured values reported in US20190225647A1, “ANTIGENIC PEPTIDES FOR THE DIAGNOSIS, THERAPY MONITORING AND/OR TREATMENT OF PSORIASIS VULGARIS” (Ludwig-Maximilians-Universität München, priority 2015, published 2019).

B1: IFN-γ: interferon-γ, increases the expression of HLA-class I molecules (protein, UniProt P01579 24-161, looked up)
Interferon gamma: QDPYVKEAENLKKYFNAGHSDVADNGTLFLGILKNWKEESDRKIMQSQIVSFYFKLFKNFKDDQSIQKSVETIKEDMNVKFFNSNKKKRDDFEKLTNYSVTDLNVQRKAIHELIQVMAELSPAAKTGKRKRSQMLFRG

How the values were obtained:
[1] = test system: CD8+ T cells from psoriasis patients; experiment: Staining of PBMC from psoriasis patients with FITC-labelled HLA-C*06:02-peptide dextramers; format: binding, human; details: flow cytometry
Method: We used FITC-labelled HLA-C*06:02-peptide dextramers to stain CD8^+ T cells from psoriasis patients. […] Thus, the peptides can be used in complex with HLA-C dextramers to address autoreactive T cells in blood of psoriasis patients. • Autoantigenic peptides complexed with HLA-C*06:02-multimers can be used to identify autoreactive CD8^+ T cells in psoriasis. […]
Fluorescent dextramers were prepared of HLA-C*06:02 and antigenic or control peptides. […] PBMC from psoriasis patients were incubated with standard dilutions of the HLA-C*06:02-peptide dextramers and a phycoerythrin-labelled CD8 antibody and the frequency of double stained cells subsequently determined by flow cytometry on a FACScan flow cytometer. Data were analyzed by FlowJo software 887.

HLA-class I = format: cell-based; details: HLA-C*06:02-positive primary human melanocytes preincubated with IFN-γ
Text: When assessing the results given below, however, it needs to be considered that the percentage of activated i.e. green-fluorescing cells in this complex cell-based recombinant assay may differ between different experiments. It may be influenced by the stability of the respective hybridoma cell batch and, in co-culture experiments, by the quantitative ratio of stimulatory and hybridoma cells, which decides the probability of cell-cell contacts (Siewert et al., 2011).
We isolated primary melanocytes from the skin and seeded them in explant culture. Cell type was confirmed by the contents of brownish melanosomes and staining with a p75-specific antibody against melanocytes. […] This effect was further enhanced, when HLA-C*06:02-positive melanocytes were preincubated with interferon (IFN)-γ, which increases the expression of HLA-class I molecules (FIG. 2C). […] TCR-hybridoma activation was HLA-restricted.
(B) TCR-hybridoma activation by HLA-C*06:02-positive (left) or HLA-C*06:02-negative (right) primary human melanocytes (MC) in the absence or presence of IFN-γ or a HLA-class I blocking antibody. Frequency of NFAT-sGFP^+ hybridoma cells was assessed by flow cytometry and normalized to the maximum value induced by CD3 activation in the same experiment. […]

Molecule | staining / binding of CD8+ blood T cells by HLA-C*06:02-peptide dextramers [1] | effect of IFN-γ addition on TCR-hybridoma activation (HLA-class I)
VRHDGGNVL [unrelated peptide (Falk et al., 1993), HLA-C*06:02 ligand, negative control complexed with HLA-C*06:02-dextramers] | did not bind | 
B1 |  | increased
